Experimental data published in ChEMBL document CHEMBL4004878, “Design, synthesis and structure-bactericidal activity relationships of novel 9-oxime ketolides and reductive epimers of acylides” (2017).
Converted amounts (≈) assume the structure as drawn.

Experiments:
Format in all cases: functional
[1] = system: Streptococcus pneumoniae; test: Bacteriostatic activity against […] Streptococcus pneumoniae ATCC 49619 after 20 to 24 hrs by two-fold microbroth dilution method
[2] = system: Streptococcus pneumoniae; test: Bactericidal activity against […] Streptococcus pneumoniae ATCC 49619 incubated for 20 to 24 hrs followed by sub-culturing for 24 hrs in absence of compound
[3] = system: Streptococcus pneumoniae; test: Ratio of MBC to MIC for […] Streptococcus pneumoniae ATCC 49619
[4] = system: Streptococcus pneumoniae; test: Bacteriostatic activity against penicillin-susceptible Streptococcus pneumoniae PU09 after 20 to 24 hrs by two-fold microbroth dilution method
[5] = system: Streptococcus pneumoniae; test: Bactericidal activity against penicillin-susceptible Streptococcus pneumoniae PU09 incubated for 20 to 24 hrs followed by sub-culturing for 24 hrs in absence of compound
[6] = system: Streptococcus pneumoniae; test: Ratio of MBC to MIC for penicillin-susceptible Streptococcus pneumoniae PU09
[7] = system: Streptococcus pyogenes; test: Bacteriostatic activity against Streptococcus pyogenes 01-968 expressing inducible ermA after 20 to 24 hrs by two-fold microbroth dilution method
[8] = system: Streptococcus pyogenes; test: Bactericidal activity against Streptococcus pyogenes 01-968 expressing inducible ermA incubated for 20 to 24 hrs followed by sub-culturing for 24 hrs in absence of compound
[9] = system: Streptococcus pyogenes; test: Ratio of MBC to MIC for Streptococcus pyogenes 01-968 expressing inducible ermA
[10] = system: Streptococcus pyogenes; test: Bacteriostatic activity against Streptococcus pyogenes 12-207 expressing mef after 20 to 24 hrs by two-fold microbroth dilution method
[11] = system: Streptococcus pyogenes; test: Bactericidal activity against Streptococcus pyogenes 12-207 expressing mef incubated for 20 to 24 hrs followed by sub-culturing for 24 hrs in absence of compound
[12] = system: Streptococcus pyogenes; test: Ratio of MBC to MIC for Streptococcus pyogenes 12-207 expressing mef
[13] = system: Haemophilus influenzae; test: Bacteriostatic activity against azithromycin-susceptible/ampicillin-resistant Haemophilus influenzae 11P307 after 20 to 24 hrs by two-fold microbroth dilution method
[14] = system: Haemophilus influenzae; test: Bactericidal activity against azithromycin susceptible/ampicillin-resistant Haemophilus influenzae 11P307 incubated for 20 to 24 hrs followed by sub-culturing for 24 hrs in absence of compound
[15] = system: Haemophilus influenzae; test: Ratio of MBC to MIC for azithromycin susceptible/ampicillin-resistant Haemophilus influenzae 11P307
[16] = system: Staphylococcus aureus; test: Bacteriostatic activity against methicillin-resistant Staphylococcus aureus PU20 expressing constitutive ermC after 20 hrs by two-fold microbroth dilution method; conditions: PU20, 20 h
[17] = system: Staphylococcus aureus; test: Bactericidal activity against methicillin-resistant Staphylococcus aureus PU20 expressing constitutive ermC incubated for 20 hrs followed by sub-culturing for 24 hrs in absence of compound
[18] = system: Staphylococcus aureus; test: Ratio of MBC to MIC for methicillin-resistant Staphylococcus aureus PU20 expressing constitutive ermC
[19] = system: Staphylococcus aureus; test: Bacteriostatic activity against methicillin-resistant Staphylococcus aureus PU32 expressing inducible ermA after 20 hrs by two-fold microbroth dilution method; conditions: PU32, 20 h
[20] = system: Staphylococcus aureus; test: Bactericidal activity against methicillin-resistant Staphylococcus aureus PU32 expressing inducible ermA incubated for 20 hrs followed by sub-culturing for 24 hrs in absence of compound
[21] = system: Staphylococcus aureus; test: Ratio of MBC to MIC against methicillin-resistant Staphylococcus aureus PU32 expressing inducible ermA
[22] = system: Moraxella catarrhalis; test: Bacteriostatic activity against erythromycin-susceptible Moraxella catarrhalis 11B366 after 20 hrs by two-fold microbroth dilution method; conditions: 11B366, 20 h
[23] = system: Moraxella catarrhalis; test: Bactericidal activity against erythromycin-susceptible Moraxella catarrhalis 11B366 incubated for 20 hrs followed by sub-culturing for 24 hrs in absence of compound
[24] = system: Moraxella catarrhalis; test: Ratio of MBC to MIC against erythromycin-susceptible Moraxella catarrhalis 11B366
[25] = system: Moraxella catarrhalis; test: Bacteriostatic activity against erythromycin-susceptible Moraxella catarrhalis 13L332 after 20 hrs by two-fold microbroth dilution method; conditions: 13L332, 20 h
[26] = system: Moraxella catarrhalis; test: Bactericidal activity against erythromycin-susceptible Moraxella catarrhalis 13L332 incubated for 20 hrs followed by sub-culturing for 24 hrs in absence of compound
[27] = system: Moraxella catarrhalis; test: Ratio of MBC to MIC against erythromycin-susceptible Moraxella catarrhalis 13L332

| SMILES | MIC [1] | MBC [2] | Ratio [3] | MIC [4] | MBC [5] | Ratio [6] | MIC [7] | MBC [8] | Ratio [9] | MIC [10] | MBC [11] | Ratio [12] | MIC [16] | MBC [17] | MIC [19] | MBC [20] | Ratio [21] | MIC [25] | MBC [26] | Ratio [27] | further results |
| --- | --- | --- | --- | --- | --- | --- | --- | --- | --- | --- | --- | --- | --- | --- | --- | --- | --- | --- | --- | --- | --- |
| CC[C@H]1OC(=O)[C@@](C)(F)C(=O)[C@H](C)[C@@H](O[C@@H]2O[C@H](C)C[C@H](N(C)C)[C@H]2O)[C@](C)(OC)C[C@@H](C)/C(=N\OCC#Cc2cncc3ccccc23)[C@H](C)[C@H]2OC(=O)O[C@@]21C | ≤ 0.008 µg/mL | 0.031 µg/mL (≈ 0.0382 µM) | >=4 | 0.25 µg/mL (≈ 0.308 µM) | 1 µg/mL (≈ 1.23 µM) | 4 | 0.062 µg/mL (≈ 0.0764 µM) | > 0.5 µg/mL | >8 | 0.031 µg/mL (≈ 0.0382 µM) | > 0.25 µg/mL | >8 | 32 µg/mL (≈ 39.4 µM) | 128 µg/mL (≈ 158 µM) | 1 µg/mL (≈ 1.23 µM) | > 8 µg/mL | >8 |  |  |  | MIC [13]: 8 µg/mL (≈ 9.85 µM); MBC [14]: > 64 µg/mL; Ratio [15]: >8; Ratio [18]: 4; MIC [22]: 1 µg/mL (≈ 1.23 µM); MBC [23]: 2 µg/mL (≈ 2.46 µM); Ratio [24]: 2 |
| CC[C@H]1OC(=O)[C@H](C)[C@H](OC(=O)Cc2ccccn2)[C@H](C)[C@@H](O[C@@H]2O[C@H](C)C[C@H](N(C)C)[C@H]2O)[C@](C)(OC)C[C@@H](C)/C(=N\OC)[C@H](C)[C@H]2OC(=O)O[C@@]21C | > 64 µg/mL | > 64 µg/mL |  | 32 µg/mL (≈ 41.9 µM) | > 64 µg/mL |  | > 64 µg/mL | > 64 µg/mL |  |  |  |  | > 256 µg/mL | > 256 µg/mL | > 256 µg/mL | > 256 µg/mL |  | 32 µg/mL (≈ 41.9 µM) | > 64 µg/mL |  |  |
| CC[C@H]1OC(=O)[C@H](C)[C@H](OC(=O)Cc2ccccn2)[C@H](C)[C@@H](O[C@@H]2O[C@H](C)C[C@H](N(C)C)[C@H]2O)[C@@](C)(OC/C=C/c2cnc3ccccc3c2)C[C@@H](C)/C(=N\O)[C@H](C)[C@H]2OC(=O)O[C@@]21C | 4 µg/mL (≈ 4.43 µM) | 16 µg/mL (≈ 17.7 µM) | 4 | 8 µg/mL (≈ 8.86 µM) | 16 µg/mL (≈ 17.7 µM) | 2 | 8 µg/mL (≈ 8.86 µM) | 64 µg/mL (≈ 70.9 µM) | 8 |  |  |  | 256 µg/mL (≈ 283 µM) | > 256 µg/mL | 64 µg/mL (≈ 70.9 µM) | > 256 µg/mL | >4 | 0.5 µg/mL (≈ 0.554 µM) | > 4 µg/mL | >8 |  |
| CC[C@H]1OC(=O)[C@@](C)(F)[C@H](OC(=O)Cc2ccccn2)[C@H](C)[C@@H](O[C@@H]2O[C@H](C)C[C@H](N(C)C)[C@H]2O)[C@](C)(OC)C[C@@H](C)/C(=N\OC)[C@H](C)[C@H]2OC(=O)O[C@@]21C | 64 µg/mL (≈ 81.9 µM) | 64 µg/mL (≈ 81.9 µM) | 1 | 32 µg/mL (≈ 40.9 µM) | > 64 µg/mL |  | 64 µg/mL (≈ 81.9 µM) | > 64 µg/mL |  |  |  |  | > 256 µg/mL | > 256 µg/mL | > 256 µg/mL | > 256 µg/mL |  | 32 µg/mL (≈ 40.9 µM) | 64 µg/mL (≈ 81.9 µM) | 2 |  |
| CC[C@H]1OC(=O)[C@H](C)[C@H](OC(=O)c2ccccn2)[C@H](C)[C@@H](O[C@@H]2O[C@H](C)C[C@H](N(C)C)[C@H]2O)[C@](C)(OC)C[C@@H](C)/C(=N\OC)[C@H](C)[C@H]2OC(=O)O[C@@]21C | 64 µg/mL (≈ 85.3 µM) | > 64 µg/mL |  | 64 µg/mL (≈ 85.3 µM) | > 64 µg/mL |  | > 64 µg/mL | > 64 µg/mL |  |  |  |  | > 256 µg/mL | > 256 µg/mL | > 256 µg/mL | > 256 µg/mL |  | 32 µg/mL (≈ 42.7 µM) | > 64 µg/mL |  |  |
| CC[C@H]1OC(=O)[C@H](C)[C@@H](OC(=O)Cc2ccccn2)[C@H](C)[C@@H](O[C@@H]2O[C@H](C)C[C@H](N(C)C)[C@H]2O)[C@](C)(OC)C[C@@H](C)/C(=N\OC)[C@H](C)[C@H]2OC(=O)O[C@@]21C | 0.125 µg/mL (≈ 0.164 µM) | 0.25 µg/mL (≈ 0.327 µM) |  | 0.5 µg/mL (≈ 0.655 µM) | 1 µg/mL (≈ 1.31 µM) | 2 | 0.25 µg/mL (≈ 0.327 µM) | 2 µg/mL (≈ 2.62 µM) | 8 |  |  |  | > 256 µg/mL | > 256 µg/mL | 4 µg/mL (≈ 5.24 µM) | > 32 µg/mL | >8 | 0.25 µg/mL (≈ 0.327 µM) | > 2 µg/mL | >8 |  |
| C=CCN(C)[C@H]1C[C@@H](C)O[C@@H](O[C@@H]2[C@@H](C)C(=O)[C@@H](C)C(=O)O[C@H](CC)[C@@]3(C)OC(=O)O[C@@H]3[C@@H](C)/C(=N/OC/C=C/c3cnc4ccccc4c3)[C@H](C)C[C@@]2(C)OC)[C@@H]1O | 0.062 µg/mL (≈ 0.0754 µM) | 0.25 µg/mL (≈ 0.304 µM) | 4 | 0.5 µg/mL (≈ 0.608 µM) | 0.5 µg/mL (≈ 0.608 µM) | 1 | 0.5 µg/mL (≈ 0.608 µM) | 4 µg/mL (≈ 4.87 µM) | 8 | 0.25 µg/mL (≈ 0.304 µM) | 1 µg/mL (≈ 1.22 µM) | 4 | > 256 µg/mL |  | 2 µg/mL (≈ 2.43 µM) | > 16 µg/mL | >8 |  |  |  | MIC [13]: 32 µg/mL (≈ 38.9 µM); MBC [14]: > 256 µg/mL; Ratio [15]: >8; MIC [22]: 8 µg/mL (≈ 9.73 µM); MBC [23]: 16 µg/mL (≈ 19.5 µM); Ratio [24]: 2 |
| C#CCN(C)[C@H]1C[C@@H](C)O[C@@H](O[C@@H]2[C@@H](C)C(=O)[C@@H](C)C(=O)O[C@H](CC)[C@@]3(C)OC(=O)O[C@@H]3[C@@H](C)/C(=N/OC/C=C/c3cnc4ccccc4c3)[C@H](C)C[C@@]2(C)OC)[C@@H]1O | 0.25 µg/mL (≈ 0.305 µM) | 1 µg/mL (≈ 1.22 µM) |  | 1 µg/mL (≈ 1.22 µM) | 4 µg/mL (≈ 4.88 µM) | 4 | 0.5 µg/mL (≈ 0.61 µM) | > 4 µg/mL | >8 | 1 µg/mL (≈ 1.22 µM) | > 8 µg/mL | >8 | > 256 µg/mL |  | 16 µg/mL (≈ 19.5 µM) | > 16 µg/mL |  |  |  |  | MIC [13]: > 256 µg/mL; MIC [22]: 32 µg/mL (≈ 39 µM); MBC [23]: > 256 µg/mL; Ratio [24]: >8 |
| CC[C@H]1OC(=O)[C@H](C)[C@@H](OC(=O)Cc2ccccn2)[C@H](C)[C@@H](O[C@@H]2O[C@H](C)C[C@H](N(C)C)[C@H]2O)[C@](C)(OC)C[C@@H](C)/C(=N\OC/C=C/c2cccnc2)[C@H](C)[C@H]2OC(=O)O[C@@]21C | 16 µg/mL (≈ 18.5 µM) | > 64 µg/mL | >4 | 8 µg/mL (≈ 9.23 µM) | > 64 µg/mL | >8 | 64 µg/mL (≈ 73.8 µM) | > 64 µg/mL |  |  |  |  | > 256 µg/mL | > 256 µg/mL | 256 µg/mL (≈ 295 µM) | > 256 µg/mL |  | 32 µg/mL (≈ 36.9 µM) | 64 µg/mL (≈ 73.8 µM) | 2 |  |
